Results from patent US20090281054A1, “COMPOSITIONS AND METHODS COMPRISING CAPURAMYCIN ANALOGUES” (priority 2008, published 2009).
In brackets after ≈: the same amount, converted by molar mass.

Tests used:
[1] = system: M. abscessus (MAB; ATCC 700869); experiment: MIC by microdilution method in 7H9 broth; assay type: cell-based; settings: Mycobacteroides abscessus, ATCC700869; MAB 700869; read-out: MIC
MSMG and MTB (H37Rv) = experiment: Minimum bactericidal concentration (MBC), MBC/MIC ratio; assay type: cell-based, Mycobacterium tuberculosis; M. smegmatis
MTB = experiment: In vivo efficacy in mouse model of chronic TB disease (lung CFU); settings: mice treated for 3 wk, starting 3 wk after infection, gav, ip, iv
Protocol: In vivo activity against MTB. In vivo efficacy of CM analogues was investigated in a mouse model of chronic TB disease (FIG. 2). Three wk after infection, mice were treated for 3 wk with the drugs by gavage (gav), intraperitoneal injection (ip), intravenous injection (iv), or intranasal (in) routes. Efficacy was analyzed by determining Colony-Forming Units (CFU) in lungs. […] Each achieved a decrease of 1-log10 lung CFU compared to the late control [LC] CFU by at least one route, which varied for each drug.

MTB in J774 cells = experiment: Intracellular activity of amino acid conjugates; assay type: cell-based, Mycobacterium tuberculosis; settings: day 0 RLU 775, Control day 7 31700
Protocol: The amino acid conjugates were tested at concentrations of 4 mg/mL and 8 mg/mL compared with a control and isoniazid (INH).
The intracellular activity against MTB by capuramycin amino acid derivatives was tested. Cells J774 were infected with MTB and treated for 7 days with the amino acid derivative. The mean Relative Light Unites (RLU), an estimation of bacterial viability, was measured as described in Snewin et al., Infect. Immun., 1999, 67(9), 4586-4593).

[2] = system: Mycobacteria (all mycobacterial species tested); experiment: In vitro MIC and MBC across mycobacterial species; assay type: cell-based; settings: NTM tested (Table 5)
MTB-H37Rv = experiment: Post-antibiotic effect (PAE); assay type: cell-based, Mycobacterium tuberculosis
Protocol: PAE of SQ641. PAE of SQ641 was determined as described (Chan et al. Antimicrob. Agents Chemother., 2004, 48(1), 340-343). At the end of incubation, suspensions were diluted 1/25, and 0.1 ml was injected into each of triplicate BACTEC vials: drug dilution was 1000-fold in the BACTEC vials. Drug carryover controls (to ascertain absence of any carryover drug) consisting of the same MTB suspension as in the test and similar drug dilutions were mixed immediately, diluted 1/25, and 0.1 ml was injected into BACTEC vials. BACTEC vials were incubated at 37° C. and read in a BACTEC TB-460 reader every 24 hr until the cumulative GI in the control reached 999. PAE was calculated from the formula PAE=T−C, where T is the time required for the drug-exposed organisms to reach a cumulative GI of 100 and C is the time required for the controls to reach a cumulative GI of 100.
PAE determines the time required for the organisms to recover following exposure to an antimicrobial agent for a short duration. PAE activities of both SQ641 and INH, each at 4 μg/ml, were investigated with MTB-H37Rv. Following 2 hr of exposure to drugs, the PAE of INH was 17 hr as compared to 55 hr for SQ641. The PAE of SQ641 was over 3 times that of INH.

MTB in J774A.1 cells = experiment: Intracellular activity of SQ641 with efflux pump blockers; assay type: cell-based, Mycobacterium tuberculosis; settings: 4 days exposure
[3] = system: Mycobacterium tuberculosis (MTB); experiment: MIC by BACTEC radiometric method; assay type: cell-based
Protocol: Determination of MIC. MIC of drugs for laboratory and clinical strains of Mycobacterium tuberculosis (MTB) was determined by BACTEC radiometric method as described by Heifets (1991), “Antituberculosis Drugs: Antimicrobial Activity in vitro, Drug Susceptibility in the Chemotherapy of Microbacterial Infections, Boca Raton, Fla., CRC Press and Luna-Herrera et al., Antimicrob. Agents and Chemother. 1995, 39(2), 440-444. […] The minimal inhibitory concentration (MIC) was defined as the lowest concentrations of drug that caused GI equal to or less than that of the 1/100 dilution growth control. Capuramycin analogues SQ641, SQ922 and SQ997 were tested at concentrations ranging from […].

MAC = experiment: Synergy by checkerboard titration (microdilution); assay type: cell-based, M. avium complex; settings: for MIC: Mycobacterium avium, drug alone

CCCCCCCCCC(=O)O[C@@H]1[C@H](OC)[C@@H]([C@@H](O[C@H]2OC(C(=O)N[C@H]3CCC[C@@H](C)NC3=O)=C[C@H](O)[C@@H]2O)C(N)=O)O[C@H]1n1ccc(=O)[nH]c1=O [SQ641]
MIC [1]: 0.5 µg/mL (≈ 0.678 µM)
MBC/MIC ratio (MSMG and MTB (H37Rv)): 1
Routes by which replication of MTB in lungs was prevented (vs early control) (MTB): all but intranasal
Mean RLU on day 7 (MTB in J774 cells; 4 μg/ml): 4707 RLU
Mean RLU on day 7 (MTB in J774 cells; 8 μg/ml): 2755 RLU
MIC90 [2]: 2 µg/mL (≈ 2.71 µM)
PAE (post-antibiotic effect) (MTB-H37Rv; 4 μg/ml, 2 hr of exposure): 55 h
PAE of SQ641 relative to INH (MTB-H37Rv; each at 4 μg/ml): over 3 times
Mean RLU at Day 7 (MTB in J774A.1 cells; SQ641 1 μg/ml + CsA10 (12 μg/ml), Day 0 RLU 811, Control Day 7 3004): 342 RLU
Mean RLU at Day 7 (MTB in J774A.1 cells; SQ641 1 μg/ml + VE10 (5 μg/ml), Day 0 RLU 425, Control Day 7 6283): 686 RLU
Mean RLU at Day 7 (MTB in J774A.1 cells; SQ641 1 μg/ml, Day 0 RLU 425, Control Day 7 6283): 3866 RLU
Mean RLU at Day 7 (MTB in J774A.1 cells; SQ641 1 μg/ml, Day 0 RLU 811, Control Day 7 3004): 2233 RLU
Mean RLU at Day 7 (MTB in J774A.1 cells; SQ641 2 μg/ml + CsA10 (12 μg/ml), Day 0 RLU 811, Control Day 7 3004): 43 RLU
Mean RLU at Day 7 (MTB in J774A.1 cells; SQ641 2 μg/ml + VE10 (5 μg/ml), Day 0 RLU 425, Control Day 7 6283): 509 RLU
Mean RLU at Day 7 (MTB in J774A.1 cells; SQ641 2 μg/ml, Day 0 RLU 425, Control Day 7 6283): 2362 RLU
Mean RLU at Day 7 (MTB in J774A.1 cells; SQ641 2 μg/ml, Day 0 RLU 811, Control Day 7 3004): 1361 RLU
Mean RLU at Day 7 (MTB in J774A.1 cells; SQ641 4 μg/ml + CsA10 (12 μg/ml), Day 0 RLU 811, Control Day 7 3004): 28 RLU
Mean RLU at Day 7 (MTB in J774A.1 cells; SQ641 4 μg/ml + VE10 (5 μg/ml), Day 0 RLU 425, Control Day 7 6283): 368 RLU
Mean RLU at Day 7 (MTB in J774A.1 cells; SQ641 4 μg/ml, Day 0 RLU 425, Control Day 7 6283): 2329 RLU
Mean RLU at Day 7 (MTB in J774A.1 cells; SQ641 4 μg/ml, Day 0 RLU 811, Control Day 7 3004): 1476 RLU
Mean RLU at Day 7 (MTB in J774A.1 cells; SQ641 8 μg/ml + CsA10 (12 μg/ml), Day 0 RLU 811, Control Day 7 3004): 15 RLU
Mean RLU at Day 7 (MTB in J774A.1 cells; SQ641 8 μg/ml + VE10 (5 μg/ml), Day 0 RLU 425, Control Day 7 6283): 44 RLU
Mean RLU at Day 7 (MTB in J774A.1 cells; SQ641 8 μg/ml, Day 0 RLU 425, Control Day 7 6283): 1392 RLU
Mean RLU at Day 7 (MTB in J774A.1 cells; SQ641 8 μg/ml, Day 0 RLU 811, Control Day 7 3004): 850 RLU
Mean RLU at Day 7 (MTB in J774A.1 cells; SQ641 16 μg/ml + CsA10 (12 μg/ml), Day 0 RLU 811, Control Day 7 3004): 14 RLU
Mean RLU at Day 7 (MTB in J774A.1 cells; SQ641 16 μg/ml + VE10 (5 μg/ml), Day 0 RLU 425, Control Day 7 6283): 18 RLU
Mean RLU at Day 7 (MTB in J774A.1 cells; SQ641 16 μg/ml, Day 0 RLU 425, Control Day 7 6283): 654 RLU
Mean RLU at Day 7 (MTB in J774A.1 cells; SQ641 16 μg/ml, Day 0 RLU 811, Control Day 7 3004): 346 RLU
Mean RLU at Day 7 (MTB in J774A.1 cells; SQ641 32 μg/ml + CsA10 (12 μg/ml), Day 0 RLU 811, Control Day 7 3004): 11 RLU
Mean RLU at Day 7 (MTB in J774A.1 cells; SQ641 32 μg/ml + VE10 (5 μg/ml), Day 0 RLU 425, Control Day 7 6283): 12 RLU
Mean RLU at Day 7 (MTB in J774A.1 cells; SQ641 32 μg/ml, Day 0 RLU 425, Control Day 7 6283): 141 RLU
Mean RLU at Day 7 (MTB in J774A.1 cells; SQ641 32 μg/ml, Day 0 RLU 811, Control Day 7 3004): 113 RLU
MIC ([3]; H37RV, MTB strain H37Rv): 1 µg/mL (≈ 1.36 µM)
MIC90 ([3]; MTB): 4 µg/mL (≈ 5.42 µM)
MIC ([3]; MTB strain 16): 4 µg/mL (≈ 5.42 µM)
MIC ([3]; MTB strain 113): 1 µg/mL (≈ 1.36 µM)
MIC ([3]; MTB strain 158): 4 µg/mL (≈ 5.42 µM)
MIC ([3]; MTB strain 606): 4 µg/mL (≈ 5.42 µM)
MIC ([3]; MTB strain 847): 4 µg/mL (≈ 5.42 µM)
MIC ([3]; MTB strain 1351): 1 µg/mL (≈ 1.36 µM)
MIC ([3]; MTB strain 1407): 2 µg/mL (≈ 2.71 µM)
MIC ([3]; MTB strain 1498): 4 µg/mL (≈ 5.42 µM)
MIC ([3]; MTB strain 1665): 2 µg/mL (≈ 2.71 µM)
MIC ([3]; MTB strain 1703): 4 µg/mL (≈ 5.42 µM)
MIC ([3]; MTB strain 1760): 8 µg/mL (≈ 10.8 µM)
MIC ([3]; MTB strain 1782): 2 µg/mL (≈ 2.71 µM)
MIC ([3]; MTB strain 1901): 4 µg/mL (≈ 5.42 µM)
MIC ([3]; MTB strain 1921): 4 µg/mL (≈ 5.42 µM)
MIC ([3]; MTB strain 2224): 4 µg/mL (≈ 5.42 µM)
MIC ([3]; MTB strain 2554): 4 µg/mL (≈ 5.42 µM)
MIC ([3]; MTB strain 2693): 8 µg/mL (≈ 10.8 µM)
MIC ([3]; MTB strain 8266): 2 µg/mL (≈ 2.71 µM)
MIC ([3]; MTB strain 8642): 4 µg/mL (≈ 5.42 µM)
ΣFIC (MAC; MAC A5, SQ641 + AMK): 0.75
ΣFIC (MAC; MAC A5, SQ641 + CLA, ≦0.5 synergistic, ≧4.0 antagonistic): 0.75
MIC Combination (MAC; MAC A5, combination SQ641 + AMK): 0.125 µg/mL
MIC Combination (MAC; MAC A5, combination SQ641 + CLA): 0.125 µg/mL
MIC Combination (MAC; MAC A5, combination SQ641 + EMB): 0.062 µg/mL
ΣFIC (MAC; MAC JSH1, SQ641 + AMK): 0.625
ΣFIC (MAC; MAC JSH1, SQ641 + CLA): 2.0
MIC Combination (MAC; MAC JSH1, combination SQ641 + AMK): 0.125 µg/mL
MIC Combination (MAC; MAC JSH1, combination SQ641 + CLA): 1 µg/mL
MIC Combination (MAC; MAC JSH1, combination SQ641 + EMB): 0.25 µg/mL
ΣFIC (MAC; MAC NIH C1-1, SQ641 + AMK): 1.0
ΣFIC (MAC; MAC NIH C1-1, SQ641 + CLA): 2.0
MIC Combination (MAC; MAC NIH C1-1, combination SQ641 + AMK): 0.5 µg/mL
MIC Combination (MAC; MAC NIH C1-1, combination SQ641 + CLA): 2.0 µg/mL
MIC Combination (MAC; MAC NIH C1-1, combination SQ641 + EMB): 0.06 µg/mL
MIC (MAC; MAC A5): 0.25 µg/mL
MIC (MAC; MAC JSH1): 1 µg/mL
MIC (MAC; MAC NIH C1-1): 2 µg/mL
